The target in one data set is T1, TRPV3 channels (Homo sapiens, UniProt Q8NET8).
T1 construct: expressed in transfected cells; host or cells: HEK293 (transient)
T1 sequence (Q8NET8 1-790): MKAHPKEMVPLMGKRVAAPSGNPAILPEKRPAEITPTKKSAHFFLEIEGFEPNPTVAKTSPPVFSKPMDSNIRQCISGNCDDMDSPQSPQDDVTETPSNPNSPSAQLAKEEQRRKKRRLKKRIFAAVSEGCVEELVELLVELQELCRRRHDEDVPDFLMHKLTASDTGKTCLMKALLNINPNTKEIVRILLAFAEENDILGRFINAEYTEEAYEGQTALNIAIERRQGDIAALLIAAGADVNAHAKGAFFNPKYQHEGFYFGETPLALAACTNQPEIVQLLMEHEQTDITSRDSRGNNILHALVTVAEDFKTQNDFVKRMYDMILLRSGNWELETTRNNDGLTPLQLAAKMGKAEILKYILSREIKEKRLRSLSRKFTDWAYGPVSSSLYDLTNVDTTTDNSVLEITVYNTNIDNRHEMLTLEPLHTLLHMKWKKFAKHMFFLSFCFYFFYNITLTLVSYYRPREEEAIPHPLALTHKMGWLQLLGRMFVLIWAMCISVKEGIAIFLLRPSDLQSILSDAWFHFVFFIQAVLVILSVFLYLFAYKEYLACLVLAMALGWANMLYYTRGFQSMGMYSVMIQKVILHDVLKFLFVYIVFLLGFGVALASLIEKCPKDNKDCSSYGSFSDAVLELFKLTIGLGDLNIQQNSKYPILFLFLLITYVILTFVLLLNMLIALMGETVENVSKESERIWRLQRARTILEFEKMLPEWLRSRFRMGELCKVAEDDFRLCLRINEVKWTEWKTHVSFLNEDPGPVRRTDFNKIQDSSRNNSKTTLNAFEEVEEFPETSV
Description: TRP Family FLIPR Assay, TRPV3. In kind it is cell-based. The conditions noted are these: HEK293 cells (transient). The protocol:
The compound of Example 5 was tested for selectivity against a panel of Human TRP family ion channels in a TRP Family FLIPR Assay as described below. • 1. TRPC3 channels (human TRPC3 variant 1 gene, expressed in HEK293 cells). • 2. TRPC4 channels (human TRPC4 gene, expressed in HEK293 cells). • 3. TRPC5 channels (human TRPC5 gene, expressed in HEK293 cells). • 4. TRPC6 channels (human TRPC6 gene, expressed in HEK293 cells). • 5. TRPM2 channels (human TRPM2 gene, transiently expressed in HEK293 cells). • 6. TRPM3 channels (human TRPM3 gene, transiently expressed in HEK293 cells). • 7. TRPM4 channels (human TRPM4 gene, expressed in CHO cells). • 8. […]
Data acquisition was performed via the FLIPR Control software supplied with the FLIPR System (MDS-AT) and data was analyzed using Microsoft Excel (Microsoft Corp., Redmond, WA) or GraphPad Prism. […]
[formula] where Base is the response at low concentrations of test article, Max is the maximum response at high concentrations, xhalf the EC50, or IC50, the concentration of test article producing either half-maximal activation or inhibition, and rate is the Hill coefficient. […] No assumptions about the fit parameters was made; the fit parameters were determined by the algorithm.
The effect of each test article was evaluated at eight (8) concentrations: 0.003, 0.01, 0.03, 0.1, 0.3, 1, 3 and 10 μM, n≤4 wells/concentration). […]

The subject of a further data set is Hepatocytes. In words: Hepatocytes predicted clearance, cyno.

Structures are written as SMILES. Bounds are passed on as bounds.

For the compound `CC(C)(O)c1cnc(N2C[C@@]3(CC[C@@H](F)[C@](C)(Cn4cnc5ccc(C#N)cc54)C3)OC2=O)cn1` (single isomer, unassigned) [Example 5], the EC50 – broadly, the midpoint of the concentration-response curve – at TRPV3 channels (agonist mode, vs EMAX of cannabidiol 300 μM, read-out: EC50 hTRPV3) is above 10 µM. Further, on TRPV3 channels (antagonist mode, activated with 2-APB 50 μM, 0.003-10 μM, read-out: IC50 hTRPV3), the IC50 (usually the concentration that inhibits the measured activity by half) is above 10 µM. In addition, in the data set with Hepatocytes, the “Hepatocytes predicted clearance in cyno” value is 1 mL/min/kg.

Values taken from patent US12391683B2, “Therapeutic compounds and methods” (Actio Biosciences, Inc., priority 2022, dated 2025).
